Experimental data as given in the NIST ThermoML archive (doi:10.1016/j.jct.2010.04.013).

Assay: mn = molality of the nth substance listed, in mol/kg
Conditions: 101 kPa, Liquid; for mass density: Vibrating tube method; for speed of sound: Pulse-echo method

[Ba+2].[O-][Cl+3]([O-])([O-])[O-].[O-][Cl+3]([O-])([O-])[O-] [barium perchlorate] + CO
Conditions	mass density, 283.15 K [kg/m3]	mass density, 288.15 K [kg/m3]	mass density, 293.15 K [kg/m3]	mass density, 298.15 K [kg/m3]	mass density, 303.15 K [kg/m3]	mass density, 308.15 K [kg/m3]	mass density, 313.15 K [kg/m3]	speed of sound, 298.15 K [m/s]
m1 = 0.04405	811.658	806.964	802.257	797.534	792.793	788.031	783.24	1104.8
m1 = 0.05789	815.181	810.483	805.768	801.038	796.29	791.514	786.709	1105.8
m1 = 0.07152	818.62	813.919	809.196	804.461	799.707	794.928	790.115	1106.8
m1 = 0.08565	822.272	817.565	812.834	808.092	803.33	798.541	793.738	–
m1 = 0.09942	825.796	821.081	816.346	811.597	806.83	802.029	797.22	1108.7
m1 = 0.1123	829.125	824.405	819.663	814.91	810.139	805.341	800.51	1109.7
m1 = 0.1401	836.397	831.665	826.908	822.143	817.357	812.546	807.7	1111.7
m1 = 0.1665	843.399	838.652	833.885	829.105	824.3	819.488	814.642	1113.2
m1 = 0.1922	850.26	845.49	840.721	835.928	831.119	826.278	821.422	1115.2
m1 = 0.2169	856.95	852.176	847.385	842.583	837.763	832.919	828.046	1116.9
m1 = 0.2417	863.79	859.009	854.206	849.387	844.546	839.692	834.813	1118.6

[Ba+2].[O-][Cl+3]([O-])([O-])[O-].[O-][Cl+3]([O-])([O-])[O-] [barium perchlorate] + C[S+](C)[O-]
Conditions	mass density, 293.15 K [kg/m3]	mass density, 298.15 K [kg/m3]	mass density, 303.15 K [kg/m3]	mass density, 313.15 K [kg/m3]	mass density, 323.15 K [kg/m3]	mass density, 333.15 K [kg/m3]	speed of sound, 298.15 K [m/s]
m1 = 0.03102	1108.57	1103.55	1098.53	1088.51	1078.49	1068.47	–
m1 = 0.04247	1111.68	1106.66	1101.64	1091.63	1081.62	1071.61	1485.2
m1 = 0.05458	1114.98	1109.97	1104.95	1094.94	1084.94	1074.94	1485.5
m1 = 0.06931	1119.03	1114.02	1109	1099	1089.01	1079.01	1486
m1 = 0.08432	1123.18	1118.17	1113.16	1103.17	1093.18	1083.2	1486.3
m1 = 0.1063	1129.31	1124.31	1119.3	1109.32	1099.34	1089.37	1486.8
m1 = 0.1359	1137.67	1132.66	1127.67	1117.69	1107.73	1097.78	1487.8
m1 = 0.1651	1146.06	1141.06	1136.07	1126.1	1116.15	1106.21	1488.5
m1 = 0.191	1153.55	1148.55	1143.57	1133.61	1123.67	1113.74	1489.3
m1 = 0.222	1162.7	1157.71	1152.72	1142.77	1132.84	1122.92	1490.4
m1 = 0.25	1171.03	1166.04	1161.06	1151.11	1141.21	1131.31	1491.5

O=S(=O)([O-])C(F)(F)F.O=S(=O)([O-])C(F)(F)F.[Be+2] [beryllium 1,1,1-trifluoromethanesulfonate] + CO
Conditions	mass density, 283.15 K [kg/m3]	mass density, 288.15 K [kg/m3]	mass density, 293.15 K [kg/m3]	mass density, 298.15 K [kg/m3]	mass density, 303.15 K [kg/m3]	mass density, 308.15 K [kg/m3]	mass density, 313.15 K [kg/m3]	speed of sound, 298.15 K [m/s]
m1 = 0.05456	809.901	805.251	800.58	795.899	791.207	786.489	781.742	1105.4
m1 = 0.06745	812.098	807.453	802.786	798.111	793.424	788.711	783.973	1106.2
m1 = 0.08472	815.041	810.402	805.745	801.074	796.384	791.686	786.956	1107.2
m1 = 0.1077	818.969	814.336	809.691	805.032	800.359	795.664	790.942	1108.5
m1 = 0.1249	821.918	817.294	812.65	807.996	803.329	798.644	793.931	1109.5
m1 = 0.1421	824.885	820.267	815.629	810.983	806.316	801.638	796.936	1110.3
m1 = 0.1594	827.866	823.252	818.621	813.979	809.325	804.652	799.953	1111.1
m1 = 0.177	830.948	826.34	821.715	817.077	812.425	807.764	803.073	1111.9

O=S(=O)([O-])C(F)(F)F.O=S(=O)([O-])C(F)(F)F.[Be+2] [beryllium 1,1,1-trifluoromethanesulfonate] + C[S+](C)[O-]
Conditions	mass density, 293.15 K [kg/m3]	mass density, 298.15 K [kg/m3]	mass density, 303.15 K [kg/m3]	mass density, 313.15 K [kg/m3]	mass density, 323.15 K [kg/m3]	mass density, 333.15 K [kg/m3]	speed of sound, 298.15 K [m/s]
m1 = 0.01855	1103.22	1098.21	1093.19	1083.18	1073.16	1063.14	–
m1 = 0.0259	1104.42	1099.41	1094.4	1084.39	1074.38	1064.37	1484.1
m1 = 0.03349	1105.65	1100.64	1095.64	1085.64	1075.64	1065.64	1484.1
m1 = 0.0433	1107.25	1102.25	1097.25	1087.27	1077.27	1067.29	1484.1
m1 = 0.0531	1108.84	1103.84	1098.85	1088.88	1078.9	1068.92	1484.1
m1 = 0.06815	1111.3	1106.31	1101.33	1091.37	1081.41	1071.46	1484.1
m1 = 0.08651	1114.3	1109.32	1104.35	1094.41	1084.48	1074.55	1484.1
m1 = 0.1051	1117.36	1112.4	1107.44	1097.52	1087.61	1077.69	1484.1
m1 = 0.1237	1120.43	1115.48	1110.52	1100.63	1090.75	1080.86	1484.1
m1 = 0.1446	1123.89	1118.95	1114.01	1104.14	1094.27	1084.41	1484.1
m1 = 0.1621	1126.82	1121.88	1116.95	1107.09	1097.24	1087.39	1484.1

[Ca+2].[O-][Cl+3]([O-])([O-])[O-].[O-][Cl+3]([O-])([O-])[O-] [calcium diperchlorate] + CO
Conditions	mass density, 283.15 K [kg/m3]	mass density, 288.15 K [kg/m3]	mass density, 293.15 K [kg/m3]	mass density, 298.15 K [kg/m3]	mass density, 303.15 K [kg/m3]	mass density, 308.15 K [kg/m3]	mass density, 313.15 K [kg/m3]	speed of sound, 298.15 K [m/s]
m1 = 0.04342	808.441	803.768	799.077	794.369	789.647	784.898	780.124	1107.2
m1 = 0.05807	811.094	806.419	801.722	797.014	792.292	787.544	782.768	–
m1 = 0.07009	813.264	808.591	803.899	799.189	794.463	789.714	784.937	1110.9
m1 = 0.08408	815.804	811.129	806.432	801.724	796.994	792.241	787.454	1112.6
m1 = 0.09795	818.319	813.643	808.941	804.234	799.508	794.756	789.975	1114.4
m1 = 0.1113	820.755	816.078	811.379	806.668	801.938	797.181	792.393	1116.1
m1 = 0.1396	825.906	821.224	816.525	811.81	807.078	802.323	797.541	1119.6
m1 = 0.1663	830.829	826.145	821.443	816.722	811.986	807.224	802.43	1123
m1 = 0.1921	835.646	830.963	826.254	821.535	816.796	812.035	807.248	1126.7
m1 = 0.2177	840.443	835.754	831.044	826.321	821.577	816.812	812.023	1129.5
m1 = 0.2427	845.09	840.401	835.687	830.964	826.212	821.445	816.651	1132.9
m1 = 0.269	850.052	845.358	840.641	835.911	831.162	826.391	821.596	1136.3
